Data taken from paper PMC6199744, “Development of Chemical Proteomics for the Folateome and Analysis of the Kinetoplastid Folateome” (ACS Infectious Diseases, 2018).
Read-outs that look alike come from different tables or passages of the source.

What was measured:
Format in all cases: binding
[1] = target: T1, HeLa cell extract proteins (Homo sapiens, UniProt Q6PJG6)
T1 construct: endogenous in cells; host or cells: HeLa cell extract
T1 sequence (Q6PJG6 1-821): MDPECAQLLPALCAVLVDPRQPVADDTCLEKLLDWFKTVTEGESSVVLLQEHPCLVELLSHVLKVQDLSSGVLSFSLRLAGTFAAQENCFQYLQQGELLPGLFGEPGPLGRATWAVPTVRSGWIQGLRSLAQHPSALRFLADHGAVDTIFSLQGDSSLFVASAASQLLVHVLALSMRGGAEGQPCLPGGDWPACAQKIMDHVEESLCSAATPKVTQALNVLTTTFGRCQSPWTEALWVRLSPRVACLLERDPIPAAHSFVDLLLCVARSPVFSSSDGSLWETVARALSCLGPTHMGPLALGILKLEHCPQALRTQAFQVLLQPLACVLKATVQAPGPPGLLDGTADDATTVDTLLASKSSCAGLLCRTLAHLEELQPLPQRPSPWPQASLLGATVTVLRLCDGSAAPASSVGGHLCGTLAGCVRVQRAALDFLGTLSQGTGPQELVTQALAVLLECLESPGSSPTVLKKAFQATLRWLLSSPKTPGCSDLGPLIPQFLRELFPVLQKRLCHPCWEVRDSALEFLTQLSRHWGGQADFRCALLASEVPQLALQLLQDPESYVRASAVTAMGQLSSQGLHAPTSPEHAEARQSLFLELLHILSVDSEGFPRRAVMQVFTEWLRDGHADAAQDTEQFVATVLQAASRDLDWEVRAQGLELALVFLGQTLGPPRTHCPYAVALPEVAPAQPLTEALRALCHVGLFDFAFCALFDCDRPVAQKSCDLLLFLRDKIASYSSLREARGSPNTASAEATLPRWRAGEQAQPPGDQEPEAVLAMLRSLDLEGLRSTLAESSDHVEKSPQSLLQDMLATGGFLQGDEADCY

[2] = target: T2, HeLa cell extract proteins (Homo sapiens, UniProt O00170)
T2 construct: endogenous in cells; host or cells: HeLa cell extract
T2 sequence (O00170 1-330): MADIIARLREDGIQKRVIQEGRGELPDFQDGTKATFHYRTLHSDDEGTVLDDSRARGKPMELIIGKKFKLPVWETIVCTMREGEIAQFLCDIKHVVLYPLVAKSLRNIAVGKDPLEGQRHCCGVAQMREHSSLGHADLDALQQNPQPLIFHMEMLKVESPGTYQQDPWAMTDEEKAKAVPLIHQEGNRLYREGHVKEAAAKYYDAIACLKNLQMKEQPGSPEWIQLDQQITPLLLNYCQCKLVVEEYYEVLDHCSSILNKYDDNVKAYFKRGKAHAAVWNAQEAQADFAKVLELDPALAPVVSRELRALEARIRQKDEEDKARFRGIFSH

[3] = target: T3, HeLa cell extract proteins (Homo sapiens, UniProt P04279)
T3 construct: endogenous in cells; host or cells: HeLa cell extract
T3 sequence (P04279 24-462): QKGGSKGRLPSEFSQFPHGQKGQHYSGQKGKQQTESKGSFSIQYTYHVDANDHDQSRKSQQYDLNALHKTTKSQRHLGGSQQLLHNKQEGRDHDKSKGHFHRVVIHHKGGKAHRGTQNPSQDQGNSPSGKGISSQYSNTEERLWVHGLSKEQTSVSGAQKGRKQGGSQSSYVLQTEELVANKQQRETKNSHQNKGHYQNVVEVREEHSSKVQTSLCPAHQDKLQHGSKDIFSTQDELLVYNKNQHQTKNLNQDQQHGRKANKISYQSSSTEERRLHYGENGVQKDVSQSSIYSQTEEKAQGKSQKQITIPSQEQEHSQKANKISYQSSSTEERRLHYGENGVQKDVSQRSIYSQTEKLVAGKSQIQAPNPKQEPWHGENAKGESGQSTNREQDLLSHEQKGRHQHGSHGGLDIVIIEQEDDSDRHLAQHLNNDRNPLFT

[4] = target: T4, HeLa cell extract proteins (Homo sapiens, UniProt Q13501); conditions: HeLa; protein SQSTM1
T4 construct: endogenous in cells; host or cells: HeLa cell extract

[5] = target: T5, HeLa cell extract proteins (Homo sapiens, UniProt Q92688); conditions: HeLa; protein ANP32B (ISOFORM 1 OF ACIDIC LEUCINE-RICH NUCLEAR PHOSPHOPROTEIN 32 FAMILY MEMBER B.)
T5 construct: endogenous in cells; host or cells: HeLa cell extract

[6] = target: T6, HeLa cell extract proteins (Homo sapiens, UniProt P36957); conditions: protein DLST; HeLa
T6 construct: endogenous in cells; host or cells: HeLa cell extract
T6 sequence (P36957 68-453): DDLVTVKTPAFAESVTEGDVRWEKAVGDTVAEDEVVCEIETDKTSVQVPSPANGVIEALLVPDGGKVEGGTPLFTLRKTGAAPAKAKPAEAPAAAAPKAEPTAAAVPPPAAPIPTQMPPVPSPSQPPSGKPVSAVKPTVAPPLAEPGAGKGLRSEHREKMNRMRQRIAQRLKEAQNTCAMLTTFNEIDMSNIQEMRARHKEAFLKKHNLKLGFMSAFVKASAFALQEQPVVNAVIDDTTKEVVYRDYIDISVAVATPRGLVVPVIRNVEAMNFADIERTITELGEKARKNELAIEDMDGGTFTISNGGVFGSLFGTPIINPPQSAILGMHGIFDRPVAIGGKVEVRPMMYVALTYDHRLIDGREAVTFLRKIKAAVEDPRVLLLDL

[7] = target: T7, HeLa cell extract proteins (Homo sapiens, UniProt P55884); conditions: protein EIF3B; HeLa
T7 construct: endogenous in cells; host or cells: HeLa cell extract

[8] = target: T8, HeLa cell extract proteins (Homo sapiens, UniProt P49257); conditions: protein LMAN1; HeLa
T8 construct: endogenous in cells; host or cells: HeLa cell extract
T8 sequence (P49257 31-510): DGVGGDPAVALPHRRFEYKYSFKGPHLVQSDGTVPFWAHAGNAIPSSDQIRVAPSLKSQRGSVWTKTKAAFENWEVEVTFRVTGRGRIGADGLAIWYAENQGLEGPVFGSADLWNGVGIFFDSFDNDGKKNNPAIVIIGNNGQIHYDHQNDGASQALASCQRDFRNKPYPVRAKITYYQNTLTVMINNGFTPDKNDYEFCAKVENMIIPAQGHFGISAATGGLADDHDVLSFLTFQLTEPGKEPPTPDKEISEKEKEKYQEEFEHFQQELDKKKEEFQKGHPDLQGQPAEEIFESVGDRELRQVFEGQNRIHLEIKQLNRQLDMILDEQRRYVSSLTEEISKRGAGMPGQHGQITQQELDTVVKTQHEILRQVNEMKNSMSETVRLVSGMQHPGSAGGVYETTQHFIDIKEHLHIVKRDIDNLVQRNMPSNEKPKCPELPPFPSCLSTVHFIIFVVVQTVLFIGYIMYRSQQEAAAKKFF

[9] = target: T9, HeLa cell extract proteins (Homo sapiens, UniProt Q16795); conditions: captured protein NDUFA9; HeLa
T9 construct: endogenous in cells; host or cells: HeLa cell extract
T9 sequence (Q16795 36-377): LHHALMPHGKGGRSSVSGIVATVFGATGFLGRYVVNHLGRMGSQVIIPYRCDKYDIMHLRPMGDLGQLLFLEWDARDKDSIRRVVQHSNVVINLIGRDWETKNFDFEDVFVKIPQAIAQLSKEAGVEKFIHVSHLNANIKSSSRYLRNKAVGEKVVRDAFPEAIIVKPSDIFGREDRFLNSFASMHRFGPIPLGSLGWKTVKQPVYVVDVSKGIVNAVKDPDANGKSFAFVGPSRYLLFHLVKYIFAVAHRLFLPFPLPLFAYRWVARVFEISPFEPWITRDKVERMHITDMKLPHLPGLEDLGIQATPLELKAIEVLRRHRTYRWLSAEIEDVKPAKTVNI

T4 sequence (Q13501 whole entry): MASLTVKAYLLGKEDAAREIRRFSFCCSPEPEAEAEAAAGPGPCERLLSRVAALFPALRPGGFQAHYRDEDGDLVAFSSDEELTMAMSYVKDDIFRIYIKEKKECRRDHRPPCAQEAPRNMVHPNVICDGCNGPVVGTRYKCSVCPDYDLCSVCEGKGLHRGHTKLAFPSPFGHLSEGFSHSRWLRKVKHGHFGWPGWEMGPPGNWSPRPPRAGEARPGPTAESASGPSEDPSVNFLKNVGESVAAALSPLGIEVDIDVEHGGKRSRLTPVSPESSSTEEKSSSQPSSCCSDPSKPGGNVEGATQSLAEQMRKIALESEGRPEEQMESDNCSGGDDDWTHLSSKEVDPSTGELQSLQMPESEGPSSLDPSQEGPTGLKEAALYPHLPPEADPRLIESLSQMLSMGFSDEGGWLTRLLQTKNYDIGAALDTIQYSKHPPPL
T5 sequence (Q92688 whole entry, canonical isoform): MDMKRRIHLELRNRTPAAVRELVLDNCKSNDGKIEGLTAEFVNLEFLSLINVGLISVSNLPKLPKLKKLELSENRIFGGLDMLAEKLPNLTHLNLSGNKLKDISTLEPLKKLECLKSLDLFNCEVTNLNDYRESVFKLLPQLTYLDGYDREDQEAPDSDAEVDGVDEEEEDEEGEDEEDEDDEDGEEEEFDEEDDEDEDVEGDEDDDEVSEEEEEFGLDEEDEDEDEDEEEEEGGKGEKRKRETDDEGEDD
T7 sequence (P55884 whole entry): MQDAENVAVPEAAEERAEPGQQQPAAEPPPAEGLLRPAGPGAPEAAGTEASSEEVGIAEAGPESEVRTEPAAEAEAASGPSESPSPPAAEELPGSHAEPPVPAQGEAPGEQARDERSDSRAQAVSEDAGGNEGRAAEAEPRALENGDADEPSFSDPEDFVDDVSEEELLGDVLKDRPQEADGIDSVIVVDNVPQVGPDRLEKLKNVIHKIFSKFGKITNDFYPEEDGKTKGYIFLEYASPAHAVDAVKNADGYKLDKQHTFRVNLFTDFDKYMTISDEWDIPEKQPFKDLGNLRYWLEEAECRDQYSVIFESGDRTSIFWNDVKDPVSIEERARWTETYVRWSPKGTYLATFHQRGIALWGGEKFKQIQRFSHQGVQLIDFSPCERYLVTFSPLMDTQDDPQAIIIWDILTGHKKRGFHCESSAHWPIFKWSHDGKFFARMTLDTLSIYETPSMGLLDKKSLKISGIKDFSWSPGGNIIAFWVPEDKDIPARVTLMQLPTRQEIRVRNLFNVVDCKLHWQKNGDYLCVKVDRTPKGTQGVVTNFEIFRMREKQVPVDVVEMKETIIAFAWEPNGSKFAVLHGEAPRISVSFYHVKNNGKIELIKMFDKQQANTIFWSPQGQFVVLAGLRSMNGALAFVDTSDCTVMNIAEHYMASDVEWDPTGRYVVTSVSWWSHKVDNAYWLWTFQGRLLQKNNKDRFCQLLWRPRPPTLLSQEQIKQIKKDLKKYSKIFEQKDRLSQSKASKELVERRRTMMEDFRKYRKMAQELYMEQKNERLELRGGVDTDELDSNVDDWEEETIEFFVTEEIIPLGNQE

| SMILES | fold changes relative to vehicle control ([1]; HeLa, protein C7ORF27) | fold changes relative to vehicle control ([2]; HeLa, captured protein AIP) | fold changes relative to vehicle control ([3]; protein SEMG1, HeLa) | fold changes relative to vehicle control [4] | fold changes relative to vehicle control [5] | fold changes relative to vehicle control [6] | fold changes relative to vehicle control [7] | fold changes relative to vehicle control [8] | fold changes relative to vehicle control [9] | fold changes relative to vehicle control [1] | fold changes relative to vehicle control [2] | fold changes relative to vehicle control [3] |
| --- | --- | --- | --- | --- | --- | --- | --- | --- | --- | --- | --- | --- |
| Nc1nc2c(c(=O)[nH]1)N(C=O)C(CNc1ccc(C(=O)N[C@@H](CCC(=O)O)C(=O)O)cc1)CN2 (stereo partly drawn) [LEU, leucovorin] | 0.75 | 0.79 | 0.13 |  |  |  |  |  |  |  |  |  |
| NCCCNc1ccc(C(=O)NC(CCC(=O)O)C(=O)O)cc1 (stereo not drawn) [compound 7] | 0.87 | 0.99 | 0.09 |  |  |  |  |  |  |  |  |  |
| CCCCCCOc1cccc(Cc2cnc(N)nc2N)c1 [compound 2] |  |  |  | 0.96 | 3.3 fold | 1.34 | 1.68 | 1.57 | 0.87 |  |  |  |
| CCCCCCOc1ccc(Cc2cnc(N)nc2N)cc1 [compound 1] |  |  |  | 1.3 | 1.88 fold | 1.31 | 0.99 | 1.17 | 1.01 |  |  |  |
| Nc1nc2cccc(-c3ccccc3)c2n1Cc1ccc(Cl)c(Cl)c1 [compound 3] |  |  |  | 1.2 | 4.13 fold | 1.17 | 1.2 | 0.87 | 1.04 |  |  |  |
| NCCOCCOCC(=O)Nc1nc2ncc(CNc3ccc(C(=O)NC(CCC(=O)O)C(=O)O)cc3)nc2c(=O)[nH]1 (stereo not drawn) [compound 6] | 1.02 | 0.92 | 0.16 |  |  |  |  |  |  |  |  |  |
| Nc1nc2[nH]cc(CCc3ccc(C(=O)N[C@@H](CCC(=O)O)C(=O)O)cc3)c2c(=O)[nH]1 [PTX, pemetrexed] |  |  |  |  |  |  |  |  |  | 0.88 | 0.93 | 0.14 |
